# Assay results reported in article PMC9106665 (Communications Biology, 2022).
# Substitutions are numbered along the chain they refer to. “And” between values parts separate entries of the source, which are not always exact repeats. Equal values may be shown once. Read-outs that look alike come from different tables or passages of the source.
# Legend:
# DfrA5 [1] = molecular target: T1, DfrA5 (Escherichia coli, UniProt P11731); assay type: binding, E. coli; design: E. coli dfrA5 gene (UniProtKB:A0A4Y6L037) was synthesized and cloned in pET-24a (+) vector with the same restriction sites; 6xHis tag (C); made in house; host or cells: E. coli BL21(DE3)
# Description: (§1) In all, 200 µg of purified enzyme was preincubated for 18 h without and with a 10× molar excess of the ligand(s) (NADPH, TMP or PLA) in 20 mM Hepes 7.5, 100 mM KCl, 5% glycerol, ±2.0% DMSO and 2 mM DTT buffer. […] Changes in intrinsic fluorescence intensity (measured ratio of absorbance at 350 nm over 330 nm) from tryptophan residues were used to calculate derivatives using the evaluation features provided by the Tycho instrument. The inflection temperature (Ti) as a marker of protein structural integrity was determined by the first derivative of the signal (ratio of 350 nm/330 nm).
# DfrA5 [2] = molecular target: T1, DfrA5; assay: biochemical; assay type: binding, E. coli
# EcDHFR [3] = molecular target: T2, EcDHFR (Escherichia coli, UniProt P0ABQ4); assay: biochemical; assay type: binding
# T2 construct: E. coli DHFR gene (UniProtKB:P0ABQ4) and dfrA1 gene (UniProtKB:A4GRC7) were synthesized and cloned in pET-41a (+) vector; made in house; host or cells: E. coli BL21(DE3)
# DfrA1 [4] = molecular target: T3, DfrA1 (Escherichia coli, UniProt P00382); assay type: binding, E. coli
# T3 construct: dfrA1 gene (UniProtKB:A4GRC7) were synthesized and cloned in pET-41a (+) vector; made in house; host or cells: E. coli BL21(DE3)
# T3 sequence (P00382 1-157): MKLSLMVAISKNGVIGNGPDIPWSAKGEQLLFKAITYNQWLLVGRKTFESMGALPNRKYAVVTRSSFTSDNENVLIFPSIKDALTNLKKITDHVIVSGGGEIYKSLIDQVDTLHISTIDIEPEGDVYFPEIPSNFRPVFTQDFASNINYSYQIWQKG
# Description: as §1, with “instrument.” for “instrument. The inflection temperature (Ti) as a marker of protein structural integrity was determined by the first derivative of the signal (ratio of 350 nm/330 nm).”
# EcDHFR D27E/L28Q [5] = molecular target: T4, EcDHFR D27E/L28Q (Escherichia coli, UniProt P0ABQ4, D27E/L28Q); assay: Steady-state kinetic measurements; assay type: biochemical; conditions: varied substrate 1 to 200 µM, 25 °C
# T4 construct: using E. coli DHFR template previously synthesized by GeneScript; made in house; host or cells: E. coli BL21(DE3)
# T4 sequence (P0ABQ4 1-159 D27E/L28Q): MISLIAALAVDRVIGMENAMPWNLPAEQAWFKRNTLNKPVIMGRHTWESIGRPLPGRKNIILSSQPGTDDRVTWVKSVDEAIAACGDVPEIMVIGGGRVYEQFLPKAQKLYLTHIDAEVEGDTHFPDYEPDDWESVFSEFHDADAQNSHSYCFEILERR
# From the text: (§2) using a nonlinear regression method in GraphPad Prism 9.2.0 software. To determine the turnover number (kcat) using the same model, the enzyme concentration (based on the protein concentration determined by Bradford assay) was constrained to a constant value and analyzed by the following equation (Eq. 3):3 Y=Et×kcat×X/(Km+X)
# EcDHFR D27E [6] = molecular target: T5, EcDHFR D27E (Escherichia coli, UniProt P0ABQ4, D27E); assay: Steady-state kinetic measurements; assay type: biochemical; conditions: varied substrate 1 to 200 µM, 25 °C
# T5 construct: using E. coli DHFR template previously synthesized by GeneScript; made in house; host or cells: E. coli BL21(DE3)
# T5 sequence (P0ABQ4 1-159 D27E): T4 sequence (P0ABQ4 1-159 D27E/L28Q) with Q28L
# From the text: as §2
# EcDHFR L28Q [7] = molecular target: T6, EcDHFR L28Q (Escherichia coli, UniProt P0ABQ4, L28Q); assay: Steady-state kinetic measurements; assay type: biochemical; conditions: varied substrate 1 to 200 µM, 25 °C
# T6 construct: using E. coli DHFR template previously synthesized by GeneScript; made in house; host or cells: E. coli BL21(DE3)
# T6 sequence (P0ABQ4 1-159 L28Q): T4 sequence (P0ABQ4 1-159 D27E/L28Q) with E27D
# From the text: as §2
# DfrA1 [8] = molecular target: T3, DfrA1; assay: biochemical; assay type: binding, E. coli
# EcDHFR [9] = molecular target: T2, EcDHFR; assay type: binding
# Description: as §1, with “instrument.” for “instrument. The inflection temperature (Ti) as a marker of protein structural integrity was determined by the first derivative of the signal (ratio of 350 nm/330 nm).”
# DfrA1 [10] = assay type: biochemical, E. coli
# From the text: as §2
# DfrA5 [11] = assay type: biochemical, E. coli
# From the text: as §2
# EcDHFR D27E/L28Q [12] = molecular target: T4, EcDHFR D27E/L28Q; assay: Enzyme inhibition assay (NADPH oxidation, 340 nm); assay type: biochemical
# Description: (§3) The assay was performed at room temperature using the Shimadzu UV/visible spectrophotometer. A standard reaction buffer contained 20 mM TES, pH 7.0, 50 mM KCl, 10 mM β-mercapthoethanol, 0.5 mM EDTA, and 1 mg/ml BSA. […] All measurements were performed in triplicate, from at least two independent experiments.
# EcDHFR D27E [13] = molecular target: T5, EcDHFR D27E; assay: Enzyme inhibition assay (NADPH oxidation, 340 nm); assay type: biochemical
# Description: as §3
# EcDHFR L28Q [14] = molecular target: T6, EcDHFR L28Q; assay: Enzyme inhibition assay (NADPH oxidation, 340 nm); assay type: biochemical
# Description: as §3
# [15] = remark limiting MST studies
# [16] = test system: E. coli BL21(DE3) strain overexpressing DfrA5; assay: Antibacterial activity (MIC); assay type: cell-based; conditions: Escherichia coli
# DfrA5 [17] = molecular target: T1, DfrA5; assay: biochemical; design: species or system E. coli
# Description: as §3
# DfrA1 and DfrA5 = assay type: biochemical, E. coli; conditions: range over DfrA1 and DfrA5
# Description: as §3
# [18] = test system: E. coli BL21(DE3) strain overexpressing DfrA1; assay: Antibacterial activity (MIC); assay type: cell-based; conditions: Escherichia coli
# [19] = test system: E. coli JW0451 acrB mutant strain; assay: microbe, parasite or virus in culture; assay type: cell-based; conditions: for MIC: w/o SMX, 80% inhibition of growth, 18 to 20 hours, 37°C
# Description: (§4) Preparation, handling of cultures and the antibiotic susceptibility testing was performed according to CLSI guidelines. […] The compounds at the highest concentrations alone and paired with Sulfamethoxazole (1:19 w/w ratio) were then added to the first well before being serially diluted (2-fold) throughout the plate, leaving the last well with broth only (negative growth control). Next, 50 μl of the inoculum was added to each well.
# E. coli BW25113 = assay: microbe, parasite or virus in culture; assay type: cell-based; conditions: for MIC: Escherichia coli, 80% inhibition of growth
# Description: as §4
# [20] = test system: E. coli BL21(DE3) strain overexpressing EcDHFR wt; assay: Antibacterial activity (MIC); assay type: cell-based; conditions: Escherichia coli, w/o SMX
# E. coli DHFR (EcDHFR) = molecular target: T7, E. coli DHFR (EcDHFR) (Escherichia coli, UniProt P0ABQ4); assay: biochemical
# T7 construct: E. coli DHFR gene (UniProtKB:P0ABQ4) and dfrA1 gene (UniProtKB:A4GRC7) were synthesized and cloned in pET-41a (+) vector; made in house; host or cells: E. coli BL21(DE3)
# Description: as §3
# [21] = binary complex, 10× molar excess of ligand
compound,measurement,setting,value
NC(=O)C1=CN([C@@H]2O[C@H](COP(=O)(O)OP(=O)(O)OC[C@H]3O[C@@H](n4cnc5c(N)ncnc54)[C@H](OP(=O)(O)O)[C@@H]3O)[C@@H](O)[C@H]2O)C=CC1 [NADPH],Ti,DfrA5 [1]; [21],69.2 ± 0.5 °C
same,Δ (Ti shift vs apo),DfrA5 [1]; [21],2.9 °C
same,Kd,"DfrA5 [2]; DfrA5:TMP, titrant NADPH",1.54 ± 0.38 µM
same,Kd,"DfrA5 [2]; DfrA5:UCP1228 (100 µM UCP1228), titrant NADPH",0.459 ± 0.157 µM
same,Kd,DfrA5 [2]; DfrA5 apo,7.47 ± 1.67 µM
same,Kd,DfrA5 [2]; DfrA5 apo form (Fig. S8),6.84 µM
same,Kd,"DfrA5 [2]; DfrA5 apo, series NADPH KD ± UCP1228",6.84 ± 1.61 µM
same,Kd,"DfrA5 [2]; DfrA5 preincubated with 100 µM UCP1228, titrant NADPH (Fig. S8)",0.45 µM
same,Fold change in KD,DfrA5 [2]; NADPH KD ± Trimethoprim,5 and 4.9 ± 1.6
same,Fold change in KD,DfrA5 [2]; NADPH KD ± UCP1228,15 and 14.9 ± 6.2
same,Kd,EcDHFR [3]; EcDHFR apo,771 ± 145 nM
same,Kd,"EcDHFR [3]; EcDHFR apo form, Fig. S5a titration",661 nM
same,Kd,"EcDHFR [3]; EcDHFR:TMP (preincubated with 1 µM TMP), titrant NADPH",8 nM and 8.1 nM
same,Fold change in KD,EcDHFR [3]; NADPH KD ± Trimethoprim,95.2 ± 50.3
same,Ti,DfrA1 [4]; [21],56.5 ± 0.8 °C
same,Δ (Ti shift vs apo),DfrA1 [4]; [21],6.7 °C
same,Km,EcDHFR D27E/L28Q [5],11.1 ± 1.6 µM
same,kcat,EcDHFR D27E/L28Q [5],3.8 ± 0.2 s⁻¹
same,Km,EcDHFR D27E [6],5.8 ± 0.9 µM
same,kcat,EcDHFR D27E [6],5.9 ± 0.3 s⁻¹
same,Km,EcDHFR L28Q [7],7.6 ± 1.3 µM
same,kcat,EcDHFR L28Q [7],4.4 ± 0.2 s⁻¹
same,Kd,"DfrA1 [8]; KD, DfrA1:TMP, titrant NADPH",430 ± 95 nM
same,Kd,"DfrA1 [8]; KD, DfrA1:UCP1228 (100 µM UCP1228), titrant NADPH",289 ± 51 nM
same,Kd,"DfrA1 [8]; KD, DfrA1 apo",1650 ± 230 nM
same,Kd,"DfrA1 [8]; KD, DfrA1 apo, series NADPH KD ± UCP1228",1040 ± 106 nM
same,Kd,"DfrA1 [8]; Kd, DfrA1 apo form (Fig. S8)",1040 ± 110 nM
same,Kd,"DfrA1 [8]; Kd, DfrA1 preincubated with 100 µM UCP1228, titrant NADPH (Fig. S8)",290 nM
same,Fold change in KD,DfrA1 [8]; NADPH KD ± Trimethoprim,4 and 3.8 ± 1.0
same,Fold change in KD,DfrA1 [8]; NADPH KD ± UCP1228,4 and 3.6 ± 0.7
same,Ti 1,EcDHFR [9]; [21],53.8 ± 0.4 °C
same,Ti 2,EcDHFR [9]; [21],63.1 ± 1.3 °C
same,Δ1 (Ti shift vs apo),EcDHFR [9]; [21],4.2 °C
same,Δ2 (Ti shift vs apo),EcDHFR [9]; [21],2.9 °C
same,fold increase in KM compared to EcDHFR,DfrA1 [10],2 fold
same,fold increase in KM compared to EcDHFR,DfrA5 [11],3 fold
CCc1nc(N)nc(N)c1C#CC(C)c1cc(-c2ccc(C(N)=O)cc2)ccc1Cl (centres unmarked) [UCP1228],Ki,EcDHFR D27E/L28Q [12],189 ± 5.36 nM
same,fold loss in affinities relative to EcDHFR,EcDHFR D27E/L28Q [12]; combinatorial mutant D27E/L28Q,69 fold
same,Ki,EcDHFR D27E [13],11.8 ± 0.4 nM
same,fold increase in Ki over EcDHFR,EcDHFR D27E [13]; D27E substitution,4 fold
same,Ki,EcDHFR L28Q [14],10.5 ± 0.69 nM
same,Δ (Ti shift vs apo),DfrA5 [1]; [21],3.7 °C
same,Ti,"DfrA5 [1]; ternary complex, +NADPH",77.3 ± 4.7 °C
same,Δ (Ti shift vs apo),"DfrA5 [1]; ternary complex, +NADPH",11 °C
same,solubility,[15],low
same,MIC,[16]; w/ SMX (1:19),20 µg/mL
same,MIC,[16]; w/o SMX,> 20 µg/mL
same,Ki,DfrA5 [17],20.1 ± 0.39 nM
same,Ti,DfrA1 [4]; [21],55.4 ± 1.7 °C
same,Δ (Ti shift vs apo),DfrA1 [4]; [21],5.6 °C
same,Ti,"DfrA1 [4]; ternary complex, +NADPH",66.5 ± 3.3 °C
same,Δ (Ti shift vs apo),"DfrA1 [4]; ternary complex, +NADPH",16.7 °C
same,fold loss of activity against DfrA1 and DfrA5 compared to EcDHFR,DfrA1 and DfrA5,10–14 fold
same,MIC,[18]; w/ SMX (1:19),20 µg/mL
same,MIC,[18]; w/o SMX,> 20 µg/mL
same,Ti 1,EcDHFR [9]; [21],65.5 ± 4.6 °C
same,Ti 2,EcDHFR [9]; [21],76.5 ± 2.5 °C
same,Δ1 (Ti shift vs apo),EcDHFR [9]; [21],15.9 °C
same,Δ2 (Ti shift vs apo),EcDHFR [9]; [21],16.3 °C
same,Ti 1,"EcDHFR [9]; ternary complex, +NADPH",64.3 ± 0.1 °C
same,Ti 2,"EcDHFR [9]; ternary complex, +NADPH",75.7 ± 1.6 °C
same,Δ1 (Ti shift vs apo),"EcDHFR [9]; ternary complex, +NADPH",14.7 °C
same,Δ2 (Ti shift vs apo),"EcDHFR [9]; ternary complex, +NADPH",15.5 °C
same,Fold difference in MIC,[19]; BW25113 w/o SMX vs JW0451 w/o SMX,8
same,MIC,[19]; Escherichia coli,1.25 µg/mL
same,MIC,[19],0.625 µg/mL
same,Fold difference in MIC,E. coli BW25113; BW25113 w/o SMX vs w/ SMX,16
same,MIC,"E. coli BW25113; BW25113, w/ SMX (1:19)",0.625 µg/mL
same,MIC,"E. coli BW25113; BW25113, w/o SMX, 18 to 20 hours, 37°C",10 µg/mL
same,MIC,[20],20 µg/mL
same,Ki,E. coli DHFR (EcDHFR),2.73 ± 0.09 nM
